Data from ChEMBL document CHEMBL5154817, “Structure-activity relationship studies on O-alkylamino-tethered salicylamide derivatives with various amino acid linkers as potent anticancer agents” (Eur J Med Chem, 2022).
The source made the active and inactive calls. No cut-off for these calls is given here.

Key:
[1] = Cytotoxicity against human MCF-10A cells incubated for 72 hrs by MTT assay; assay type: toxicity, cell-based
[2] = system: T47D; assay: Antiproliferative activity against human T47D cells assessed as inhibition of cell growth incubated fro 72 hrs by MTT assay; assay type: functional, cell-based
[3] = system: MCF7; assay: Antiproliferative activity against human MCF7 cells assessed as inhibition of cell growth incubated for 72 hrs by MTT assay; assay type: functional, cell-based; settings: MCF7, 72 h
[4] = system: MDA-MB-231; assay: Antiproliferative activity against human MDA-MB-231 cells assessed as inhibition of cell growth incubated for 72 hrs by MTT assay; assay type: functional, cell-based; settings: MDA-MB-231, 72 h
[5] = system: MDA-MB-468; assay: Antiproliferative activity against human MDA-MB-468 cells assessed as inhibition of cell growth incubated for 72 hrs by MTT assay; assay type: functional, cell-based; settings: MDA-MB-468, 72 h
[6] = molecular target: Signal transducer and activator of transcription 3 (Homo sapiens) (UniProt P40763); assay: Inhibition of STAT3 in human MDA-MB-231 cells assessed as suppression of STAT3 phosphorylation incubated for 24 hrs by Western blotting analysis; assay type: cell-based; settings: dose 1-10 µM, DDE = dose-dependent effect
Chain of Signal transducer and activator of transcription 3 (Homo sapiens) (P40763 whole entry): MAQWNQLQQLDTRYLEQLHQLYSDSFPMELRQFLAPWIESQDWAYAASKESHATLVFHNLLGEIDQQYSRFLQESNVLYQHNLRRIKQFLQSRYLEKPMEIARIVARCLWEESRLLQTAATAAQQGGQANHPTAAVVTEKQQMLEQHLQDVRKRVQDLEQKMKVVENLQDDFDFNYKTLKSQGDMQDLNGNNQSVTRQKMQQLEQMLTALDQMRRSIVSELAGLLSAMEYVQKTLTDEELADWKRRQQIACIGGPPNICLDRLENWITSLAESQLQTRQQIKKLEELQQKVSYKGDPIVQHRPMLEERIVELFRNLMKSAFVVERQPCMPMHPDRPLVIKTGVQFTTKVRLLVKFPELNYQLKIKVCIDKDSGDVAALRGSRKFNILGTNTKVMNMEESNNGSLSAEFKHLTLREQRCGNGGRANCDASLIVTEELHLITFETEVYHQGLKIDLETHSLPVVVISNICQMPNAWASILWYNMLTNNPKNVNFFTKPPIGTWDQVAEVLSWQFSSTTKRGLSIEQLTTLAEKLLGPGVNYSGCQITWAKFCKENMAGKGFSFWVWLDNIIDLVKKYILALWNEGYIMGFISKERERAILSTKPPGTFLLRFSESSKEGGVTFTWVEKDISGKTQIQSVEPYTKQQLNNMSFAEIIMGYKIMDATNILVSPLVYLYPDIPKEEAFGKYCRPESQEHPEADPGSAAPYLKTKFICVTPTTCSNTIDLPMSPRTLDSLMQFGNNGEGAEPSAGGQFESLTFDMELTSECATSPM

[7] = system: MDA-MB-231; assay: Induction of apoptosis in human MDA-MB-231 cells assessed as increase in cleaved caspase-3 level at 1 to 10 uM incubated for 48 hrs by Western blotting analysis; assay type: functional, cell-based; settings: dose 1-10 µM
[8] = system: MDA-MB-231; assay: Induction of apoptosis in human MDA-MB-231 cells assessed as increase in cleaved PARP level at 1 to 10 uM incubated for 48 hrs by Western blotting analysis; assay type: functional, cell-based; settings: dose 1-10 µM
[9] = system: T47D; assay: Inhibition of colony formation in human T47D cells incubated for 2 weeks measured by crystal violet staining method; assay type: functional, cell-based; settings: dose 0.5-7.5 µM, DDE = dose-dependent effect
[10] = system: MDA-MB-231; assay: Induction of apoptosis in human MDA-MB-231 cells assessed as early apoptotic cells at 5 uM incubated for 48 hrs by Annexin V staining based cell analyzer method (reference value: 2.6%); assay type: functional
[11] = system: MDA-MB-231; assay: Inhibition of colony formation in human MDA-MB-231 cells incubated for 2 weeks measured by crystal violet staining method; assay type: functional, cell-based; settings: dose 0.1-3 µM, DDE = dose-dependent effect
[12] = system: MDA-MB-231; assay: Induction of apoptosis in human MDA-MB-231 cells assessed as late apoptotic cells at 1 uM incubated for 48 hrs by Annexin V staining based cell analyzer method (reference value: 4.45%); assay type: functional
[13] = system: MCF7; assay: Inhibition of colony formation in human MCF7 cells incubated for 2 weeks measured by crystal violet staining method; assay type: functional, cell-based; settings: dose 1-10 µM, DDE = dose-dependent effect
[14] = system: MDA-MB-231; assay: Induction of apoptosis in human MDA-MB-231 cells assessed as late apoptotic cells at 5 uM incubated for 48 hrs by Annexin V staining based cell analyzer method (reference value: 4.45%); assay type: functional
[15] = system: MDA-MB-231; assay: Induction of apoptosis in human MDA-MB-231 cells assessed as viable cells at 1 uM incubated for 48 hrs by Annexin V staining based cell analyzer method (reference value: 92.55%); assay type: functional; settings: read-out: Activity
[16] = system: MDA-MB-231; assay: Induction of apoptosis in human MDA-MB-231 cells assessed as early apoptotic cells at 10 uM incubated for 48 hrs by Annexin V staining based cell analyzer method (reference value: 2.6%); assay type: functional
[17] = system: MDA-MB-231; assay: Induction of apoptosis in human MDA-MB-231 cells assessed as downregulation of Bcl-2 level at 1 to 10 uM incubated for 48 hrs by Western blotting analysis; assay type: functional, cell-based; settings: dose 1-10 µM
[18] = system: MDA-MB-468; assay: Inhibition of colony formation in human MDA-MB-468 cells incubated for 2 weeks measured by crystal violet staining method; assay type: functional, cell-based; settings: dose 0.5-7.5 µM, DDE = dose-dependent effect
[19] = Toxicity in nude mouse xenografted with human MDA-MB-231 cells assessed as loss of body weight at 7.5 to 10 mg/kg, ip measured daily for 14 days; assay type: organism-based; settings: in vivo, 336 h, dose 7.5-10 mg/kg, time 14 day
[20] = system: MDA-MB-231; assay: Induction of apoptosis in human MDA-MB-231 cells assessed as viable cells at 10 uM incubated for 48 hrs by Annexin V staining based cell analyzer method (reference value: 92.55%); assay type: functional; settings: read-out: Activity
[21] = system: MDA-MB-231; assay: Antitumor activity against human MDA-MB-231 cells xenografted in nude mouse assessed as reduction in tumor volume at 10 mg/kg, ip measured every other day for 14 days; assay type: functional; settings: MDA-MB-231, 336 h, time 14 day
[22] = system: MDA-MB-231; assay: Induction of apoptosis in human MDA-MB-231 cells assessed as necrotic cells at 1 uM incubated for 48 hrs by Annexin V staining based cell analyzer method (reference value: 0.4%); assay type: functional
[23] = system: MDA-MB-231; assay: Induction of apoptosis in human MDA-MB-231 cells assessed as early apoptotic cells at 1 uM incubated for 48 hrs by Annexin V staining based cell analyzer method (reference value: 2.6%); assay type: functional
[24] = system: MDA-MB-231; assay: Induction of apoptosis in human MDA-MB-231 cells assessed as viable cells at 5 uM incubated for 48 hrs by Annexin V staining based cell analyzer method (reference value: 92.55%); assay type: functional; settings: read-out: Activity
[25] = system: MDA-MB-231; assay: Induction of apoptosis in human MDA-MB-231 cells assessed as late apoptotic cells at 10 uM incubated for 48 hrs by Annexin V staining based cell analyzer method (reference value: 4.45%); assay type: functional
[26] = system: MDA-MB-231; assay: Induction of apoptosis in human MDA-MB-231 cells assessed as necrotic cells at 10 uM incubated for 48 hrs by Annexin V staining based cell analyzer method (reference value: 0.4%); assay type: functional
[27] = system: MDA-MB-231; assay: Induction of apoptosis in human MDA-MB-231 cells assessed as necrotic cells at 5 uM incubated for 48 hrs by Annexin V staining based cell analyzer method (reference value: […]); assay type: functional
[28] = system: MDA-MB-231; assay: Induction of apoptosis in human MDA-MB-231 cells assessed as activation of Bax at 1 to 10 uM incubated for 48 hrs by Western blotting analysis; assay type: functional, cell-based; settings: dose 1-10 µM

CC(C)(C)OC(=O)NCCOc1ccc(Cl)cc1C(=O)N[C@@H](Cc1ccccc1)C(=O)Nc1ccc2c(c1)S(=O)(=O)C=C2
IC50 at 72 h [1]: 1.73 µM | IC50 [2]: 1.46 µM | IC50 [3]: 1.53 µM | IC50 [4]: 1.17 µM

NCCOc1ccc(Cl)cc1C(=O)N[C@@H](Cc1ccccc1)C(=O)Nc1ccc2c(c1)S(=O)(=O)C=C2
IC50 at 72 h [1]: 2.03 µM | IC50 [5]: 3.53 µM | IC50 [2]: 1.58 µM | IC50 [3]: 1.62 µM | IC50 [4]: 1.4 µM

NCCOc1ccc(Cl)cc1C(=O)Nc1ccc([N+](=O)[O-])cc1Cl
IC50 [5]: 5.05 µM | IC50 [2]: 1.88 µM | IC50 [3]: 4.14 µM | IC50 [4]: 3.48 µM

O=C(N[C@@H](Cc1ccccc1)C(=O)Nc1cc(C(F)(F)F)cc(C(F)(F)F)c1)c1cc(Cl)ccc1OC1CCNCC1
IC50 at 72 h [1]: 5.9 µM | IC50 [5]: 2.63 µM | IC50 [2]: 3.19 µM | IC50 [3]: 2.63 µM | IC50 [4]: 2.32 µM

CC(C)[C@H](NC(=O)c1cc(Cl)ccc1OCCNC(=O)OC(C)(C)C)C(=O)Nc1ccc2c(c1)S(=O)(=O)C=C2
IC50 at 72 h [1]: 2.6 µM | IC50 [5]: 2.38 µM | IC50 [2]: 1.59 µM | IC50 [3]: 1.52 µM | IC50 [4]: 1.53 µM

CC(C)[C@H](NC(=O)c1cc(Cl)ccc1OCCNC(=O)OC(C)(C)C)C(=O)Nc1ccc([N+](=O)[O-])cc1Cl
inhibition [6]: Dde | Activity [7]: Active | Activity [8]: Active | inhibition [9]: Dde | Activity [10]: 9.75% | inhibition [11]: Dde | IC50 at 72 h [1]: > 60 µM | IC50 [5]: 18.3 µM | Activity [12]: 2.6% | IC50 [2]: 8.92 µM | inhibition [13]: Dde | Activity [14]: 10.9% | IC50 [3]: 9.05 µM | viability at 1 µM [15]: 94.2% | Activity [16]: 17.85% | Activity [17]: Active | inhibition [18]: Dde | Activity [19]: Non-Toxic | IC50 [4]: 3.38 µM | viability at 10 µM [20]: 44.9% | inhibition in vivo at 10 mg/kg [21]: 55% | Activity [22]: 0.3% | Activity [23]: 2.85% | viability at 5 µM [24]: 78.8% | Activity [25]: 35.7% | Activity [26]: 1.6% | Activity [27]: 0.55% | Activity [28]: Active

CC(C)(C)OCC(NC(=O)c1cc(Cl)ccc1OCCN)C(=O)Nc1ccc([N+](=O)[O-])cc1Cl (single isomer, unassigned)
IC50 [3]: 1.62 µM | IC50 [4]: 3.22 µM

CC(C)[C@H](NC(=O)c1cc(Cl)ccc1OCCN)C(=O)Nc1ccc([N+](=O)[O-])cc1Cl
IC50 [3]: > 10 µM | IC50 [4]: > 10 µM

NCCOc1ccc(Cl)cc1C(=O)N[C@H](Cc1ccccc1)C(=O)Nc1ccc([N+](=O)[O-])cc1Cl
IC50 [3]: 4.89 µM | IC50 [4]: 5.02 µM

CC(C)(C)OC(=O)CC[C@H](NC(=O)c1cc(Cl)ccc1OCCN)C(=O)Nc1ccc([N+](=O)[O-])cc1Cl
IC50 [3]: 3.08 µM | IC50 [4]: 5.99 µM

CC(C)(C)OC(=O)NCCOc1ccc(Cl)cc1C(=O)NCC(=O)Nc1ccc2c(c1)S(=O)(=O)C=C2
IC50 [3]: 1.43 µM | IC50 [4]: 2.08 µM

CC(C)[C@H](NC(=O)c1cc(Cl)ccc1OCCNC(=O)OC(C)(C)C)C(=O)Nc1cc(F)cc(C(F)(F)F)c1
IC50 [3]: 11.5 µM | IC50 [4]: 7.87 µM

CC(C)[C@H](NC(=O)c1cc(Cl)ccc1OCCN)C(=O)Nc1ccc2c(c1)S(=O)(=O)C=C2
IC50 [3]: 4.35 µM | IC50 [4]: 5.95 µM

CC(C)[C@H](NC(=O)c1cc(Cl)ccc1OCCCNC(=O)OC(C)(C)C)C(=O)Nc1ccc([N+](=O)[O-])cc1Cl
IC50 [3]: > 10 µM | IC50 [4]: > 10 µM

CC(C)[C@H](NC(=O)c1cc(Cl)ccc1OC1CCNCC1)C(=O)Nc1ccc([N+](=O)[O-])cc1Cl
IC50 [3]: > 10 µM | IC50 [4]: 5.23 µM

CC(C)(C)OC(=O)NCCOc1ccc(Cl)cc1C(=O)N[C@@H](CO)C(=O)Nc1ccc([N+](=O)[O-])cc1Cl
IC50 [3]: > 10 µM | IC50 [4]: > 10 µM

CC(C)COC(=O)NCCOc1ccc(Cl)cc1C(=O)N[C@H](C(=O)Nc1ccc([N+](=O)[O-])cc1Cl)C(C)C
IC50 [3]: 10.1 µM | IC50 [4]: 4.9 µM

CC(C)(C)OC(=O)N1CCC(Oc2ccc(Cl)cc2C(=O)N[C@@H](Cc2ccccc2)C(=O)Nc2cc(C(F)(F)F)cc(C(F)(F)F)c2)CC1
IC50 [3]: > 10 µM | IC50 [4]: > 10 µM

C=C(NC(=O)c1cc(Cl)ccc1OCCNC(=O)OC(C)(C)C)C(=O)Nc1ccc([N+](=O)[O-])cc1Cl
IC50 [3]: 4.48 µM | IC50 [4]: 5.34 µM

CC[C@@H](C)[C@H](NC(=O)c1cc(Cl)ccc1OCCNC(=O)OC(C)(C)C)C(=O)Nc1ccc([N+](=O)[O-])cc1Cl
IC50 [3]: 10.5 µM | IC50 [4]: 4.02 µM

CC(C)[C@H](NC(=O)c1cc(Cl)ccc1OCCCN)C(=O)Nc1ccc([N+](=O)[O-])cc1Cl
IC50 [3]: > 10 µM | IC50 [4]: 6.77 µM

CC(C)[C@H](NC(=O)c1cc(Cl)ccc1OCCCCN)C(=O)Nc1ccc([N+](=O)[O-])cc1Cl
IC50 [3]: > 10 µM | IC50 [4]: 5.59 µM

O=C(Nc1ccc([N+](=O)[O-])cc1Cl)c1cc(Cl)ccc1O [NICLOSAMIDE]
IC50 [3]: 8.13 µM | IC50 [4]: 1.78 µM

CC(C)[C@H](NC(=O)c1cc(Cl)ccc1OCCN)C(=O)Nc1cc(F)cc(C(F)(F)F)c1
IC50 [3]: > 10 µM | IC50 [4]: 4.34 µM

CC(C)[C@H](NC(=O)c1cc(Cl)ccc1OC1CCN(C(=O)OC(C)(C)C)CC1)C(=O)Nc1ccc([N+](=O)[O-])cc1Cl
IC50 [3]: > 10 µM | IC50 [4]: > 10 µM

CC(C)[C@H](NC(=O)c1cc(Cl)ccc1OCCN)C(=O)Nc1cc(C(F)(F)F)cc(C(F)(F)F)c1
IC50 [3]: 6.01 µM | IC50 [4]: 5.43 µM

C[C@H](NC(=O)c1cc(Cl)ccc1OCCNC(=O)OC(C)(C)C)C(=O)Nc1ccc([N+](=O)[O-])cc1Cl
IC50 [3]: > 10 µM | IC50 [4]: > 10 µM
